{"source": "patent US12070448B2", "about": "“Use of carbamate compound for prevention, alleviation or treatment of status epilepticus” (SK BIOPHARMACEUTICALS CO., LTD., priority 2018, dated 2024)", "key": {"[1]": {"tested_on": "pilocarpine-induced status epilepticus", "assay": "Pilocarpine-induced status epilepticus in mice", "assay_type": "in vivo, mouse", "settings": "for Mortality: 50 min", "procedure": "Male mice (C57BL/6, 21-24 g) were used. The experimental animals were housed under a 12-hour light/dark cycle (lighting from 7 pm to 7 am) and maintained at a temperature of 22-25° C. and about 40 to 60% relative humidity. Food and water were provided ad libitum. The animals were randomly divided into the following groups. […]\nExperimental Groups of Administering Positive Control and Test Compound 10 Minutes after Onset of Status Epilepticus • As a control, 13 mice intraperitoneally single administered with 30% PEG300 (vehicle) at a volume of 10 ml/kg • As a positive control, 12 mice intraperitoneally single administered valproic acid (VPA) at a dose of 200 mg/kg (10 ml/kg) • 13 Mice intraperitoneally single administered Test Compound at a dose of 25 mg/kg (10 ml/kg) Induction of Status Epilepticus\nMethylscopolamine was dissolved in a vehicle (0.9% saline) at a concentration of 1 mg/kg (10 m/kg) and administered subcutaneously to the back of the neck. After 30 minutes, pilocarpine was dissolved in a vehicle (0.9% saline) at a concentration of 320 mg/kg (10 ml/kg) and administered intraperitoneally.\nIn the case of the drug-administered experimental groups 10 minutes after onset of status epilepticus, valproic acid and Test Compound were administered 10 minutes after onset of status epilepticus. […]\nIn the case of the drug-administered experimental groups 10 minutes after onset of status epilepticus, Test Compound was administered intraperitoneally at a dose of 25 mg/kg (10 ml/kg). At the same time point, valproic acid (positive control group) was administered intraperitoneally at a dose of 200 mg/kg (10 ml/kg). […]\nIn the case of the drug-administered experimental groups 10 minutes after onset of status epilepticus, the effects of the compound were represented as the mean±standard error, and statistical significance was recognized when there was a difference of p<0.05 in data using one-way ANOVA and a Tukey's test as a post-hoc test."}, "[2]": {"tested_on": "low Mg2+-induced seizure-like events (SLEs) in CA1 pyramidal neurons of hippocampal slices", "assay": "Whole-cell patch-clamp model of low Mg2+-induced seizure-like events in mouse hippocampal slices", "assay_type": "cell-based", "settings": "for Duration of SLE in comparison with before treatment of Test Compound, during treatment / Number of SLE in comparison with before treatment of Test Compound, during treatment: 100 μM; for Duration of SLE in comparison with before treatment of Test Compound, during treatment / Number of SLE in comparison with before treatment of Test Compound, during treatment / Duration of SLE in comparison with before treatment of Test Compound, after washing / Number of SLE in comparison with before treatment of Test Compound, after washing: mean±standard error; for Duration of SLE in comparison with before treatment of Test Compound, after washing / Number of SLE in comparison with before treatment of Test Compound, after washing: after washout of 100 μM", "procedure": "Male mice (C57BL/6, 24-26 g) were used. The experimental animals were housed under a 12-hour light/dark cycle (lighting from 7 pm to 7 am) and maintained at a temperature of 22-25° C. and about 40 to 60% relative humidity. Food and water were provided ad libitum.\nFor whole-cell patch-clamp recording, the brain of the mouse was excised, and the hippocampal slices ([…]) were prepared with oxygenated artificial cerebrospinal fluid (ACSF) (124 mM NaCl, 3.0 mM KCl, 1.23 mM NaH2PO4, 2.2 mM CaCl2, 1.2 mM MgCl2, 26 mM NaHCO3, and 10 mM glucose, pH 7.4). All experiments were performed in visually guided CA1 pyramidal neurons, and a glass pipette (4-5 MΩ) was used for recording. After incubating the tissue for 1 hour, a single slice was submerged in a recording chamber and continuously superfused with oxygenated artificial cerebrospinal fluid (32° C.; 95% O2/5% CO2).\nFor low Mg^2+-induced seizure-like events (SLEs) measurement, 0 mM MgCl2 and 5.0 mM KCl were used. SLEs were defined by more than three spikes in a burst. Whole-cell patch-clamp currents were digitized with a MultiClamp 700B amplifier and a Digidata 1440 (Axon Instruments, CA), and the acquired data were analyzed with the pCLAMP version 10.2 (Axon Instruments) and the Mini Analysis Program (Synaptosoft).\nEarly SLEs (immediately after onset of SLEs): measurement of SLEs observed 20-30 minutes after the application of low Mg^2+ ACSF.\nLate SLEs (after 1 hour incubation in low Mg^2+ ACSF): measurement of SLEs observed immediately after whole-cell rupture.\nThe treatment of the compound for measuring the effect of Test Compound was initiated 10-15 minutes after the occurrence of SLEs.\nThe effect of Test Compound was a comparison value (%) to the SLE value that occurred after the treatment of low Mg^2+ ACSF and before the treatment of Test Compound, and was represented as the mean±standard error. When there was a difference of p<0.05 in data by using Student's t-test, statistical significance was recognized."}, "[3]": {"settings": "Early SLE, treatment started 10-15 min after occurrence of SLE, n=5"}, "[4]": {"settings": "Early and late SLEs, 100 μM treated 10-15 minutes after occurrence of SLE, compared to after washing"}, "[5]": {"settings": "Late SLE (after 1 hour in low Mg2+ ACSF), n=8"}, "[6]": {"settings": "Drug administration 10 min after onset of status epilepticus, 200 mg/kg i.p., observed 50 min, mean±standard error"}}}
{"smiles": "NC(=O)O[C@@H](Cn1ncnn1)c1ccccc1Cl", "note": "[Test Compound, Carbamic acid (R)-1-(2-chlorophenyl)-2-tetrazol-2-yl-ethyl ester]", "values": [{"measurement": "Mortality, result in words", "setting": "[1]; 20 mg/kg i.p. immediately after occurrence of status epilepticus, compared to the control group", "value": "tendency to suppress mortality"}, {"measurement": "Mortality", "setting": "[1]; Drug administration 10 min after onset of status epilepticus, 25 mg/kg i.p.", "value": 0, "unit": "%"}, {"measurement": "Mortality", "setting": "[1]; Drug administration immediately after onset of status epilepticus, 20 mg/kg i.p.", "value": 0, "unit": "%"}, {"measurement": "Duration of SLE in comparison with before treatment of Test Compound, during treatment", "setting": "[2]; [3]", "value": "15.39 ± 6.82", "unit": "%"}, {"measurement": "Number of SLE in comparison with before treatment of Test Compound, during treatment", "setting": "[2]; [3]", "value": "31.45 ± 16.13", "unit": "%"}, {"measurement": "Duration of SLE in comparison with before treatment of Test Compound, after washing", "setting": "[2]; Early SLE, n=5", "value": "83.63 ± 5.14", "unit": "%"}, {"measurement": "Number of SLE in comparison with before treatment of Test Compound, after washing", "setting": "[2]; Early SLE, n=5", "value": "91.99 ± 16.47", "unit": "%"}, {"measurement": "Duration of SLE, result in words", "setting": "[2]; [4]", "value": "significantly reduced"}, {"measurement": "Number of SLE, result in words", "setting": "[2]; [4]", "value": "significantly reduced"}, {"measurement": "Duration of SLE in comparison with before treatment of Test Compound, during treatment", "setting": "[2]; [5]", "value": "42.61 ± 3.50", "unit": "%"}, {"measurement": "Number of SLE in comparison with before treatment of Test Compound, during treatment", "setting": "[2]; [5]", "value": "62.12 ± 5.59", "unit": "%"}, {"measurement": "Duration of SLE in comparison with before treatment of Test Compound, after washing", "setting": "[2]; Late SLE, n=8", "value": "81.81 ± 13.78", "unit": "%"}, {"measurement": "Number of SLE in comparison with before treatment of Test Compound, after washing", "setting": "[2]; Late SLE, n=8", "value": "92.36 ± 8.21", "unit": "%"}]}
{"smiles": "CCCC(CCC)C(=O)O", "note": "[Positive control group, valproic acid, reference compound]", "values": [{"measurement": "Mortality", "setting": "[1]; Drug administration 10 min after onset of status epilepticus, 200 mg/kg i.p.", "value": 14, "unit": "%"}, {"measurement": "Seizure count", "setting": "[1]; [6]", "value": "0.8 ± 0.18"}, {"measurement": "Seizure score (modified Racine score)", "setting": "[1]; [6]", "value": "3.2 ± 0.39"}]}
